Assay results from the NIST ThermoML archive (doi:10.1021/je034102r).

Test: molar heat capacity at constant pressure
Conditions: 101.33 kPa, Liquid, heat bridge-scanning calorimeter

CCCCn1cc[n+](C)c1.F[P-](F)(F)(F)(F)F [1-butyl-3-methylimidazolium hexafluorophosphate]
Conditions | molar heat capacity at constant pressure [J/K/mol]
380.71 K | 456.97
380.84 K | 457.53
380.98 K | 457.25
381.25 K | 457.53
381.38 K | 456.97
381.51 K | 456.68
381.63 K | 456.68
381.76 K | 456.68
381.89 K | 456.97
382.01 K | 457.53
382.14 K | 457.82
382.27 K | 457.53
382.56 K | 457.53
382.68 K | 458.39
382.81 K | 457.82
382.94 K | 458.1
383.06 K | 458.39
383.19 K | 458.67
383.32 K | 458.67
383.45 K | 458.39
383.57 K | 457.82
383.7 K | 457.82
383.83 K | 457.53
384.1 K | 458.1
384.23 K | 457.82
384.36 K | 458.1
384.48 K | 458.67
384.61 K | 459.24
384.74 K | 458.95
384.86 K | 458.39
384.99 K | 457.82
385.12 K | 458.1
385.41 K | 459.52
385.54 K | 460.09
385.66 K | 459.81
385.79 K | 459.52
385.92 K | 459.24
386.05 K | 459.52
386.18 K | 460.09
386.3 K | 460.09
386.43 K | 459.81
386.56 K | 460.09
386.69 K | 460.38
386.97 K | 460.38
387.1 K | 460.09
387.23 K | 460.09
387.36 K | 459.81
387.49 K | 460.09
387.61 K | 460.38
387.74 K | 460.38
387.87 K | 460.09
388 K | 460.09
388.28 K | 461.23
388.41 K | 460.94
388.54 K | 461.23
388.67 K | 461.51
388.79 K | 461.51
388.92 K | 461.51
389.05 K | 461.51
389.18 K | 461.8
389.3 K | 461.8
389.43 K | 461.51
389.56 K | 461.8
389.84 K | 461.8
389.96 K | 462.08
390.09 K | 462.08
390.22 K | 462.36
390.35 K | 462.93
390.47 K | 462.93
390.6 K | 463.79
390.73 K | 464.07
390.86 K | 463.5
391.15 K | 463.5
391.27 K | 464.35
391.4 K | 464.64
391.53 K | 464.35
391.66 K | 464.64
391.79 K | 464.07
391.92 K | 464.07
392.05 K | 463.79
392.17 K | 463.79
392.3 K | 464.35
392.43 K | 464.92
392.71 K | 464.07
392.84 K | 464.07
392.97 K | 464.07
393.11 K | 464.07
393.24 K | 464.07
393.36 K | 464.35
393.49 K | 464.35
393.62 K | 464.64
393.75 K | 465.21
394.04 K | 465.21
394.17 K | 465.21
394.3 K | 465.49
394.42 K | 465.49
394.55 K | 465.77
394.68 K | 466.34
394.81 K | 467.48
394.94 K | 467.48
395.07 K | 467.2
395.2 K | 466.63
395.32 K | 466.63
395.6 K | 466.91
395.73 K | 466.91
395.86 K | 467.2
395.99 K | 468.05
396.12 K | 468.33
396.24 K | 468.33
396.37 K | 468.33
396.5 K | 468.62
396.63 K | 469.47
396.92 K | 469.19
397.05 K | 468.62
397.18 K | 468.9
397.31 K | 468.9
397.44 K | 469.19
397.56 K | 469.19
397.69 K | 469.47
397.82 K | 469.19
397.95 K | 469.19
398.08 K | 469.47
398.21 K | 469.47
398.49 K | 469.19
398.62 K | 469.47
398.75 K | 470.04
398.88 K | 470.32
399.01 K | 470.61
399.15 K | 470.61
399.28 K | 470.89
399.41 K | 471.17
399.53 K | 472.03
399.82 K | 471.17
399.95 K | 470.89
400.08 K | 470.89
400.21 K | 470.61
400.34 K | 471.17
400.47 K | 471.74
400.6 K | 471.74
400.73 K | 472.6
400.86 K | 472.03
400.99 K | 471.74
401.12 K | 471.74
401.41 K | 472.6
401.54 K | 472.31
401.67 K | 471.74
401.8 K | 472.03
401.93 K | 472.03
402.06 K | 472.31
402.19 K | 472.03
402.32 K | 471.46
402.45 K | 471.46
402.74 K | 471.74
402.87 K | 471.46
403 K | 471.74
403.13 K | 472.03
403.26 K | 472.03
403.39 K | 472.03
403.52 K | 472.03
403.65 K | 472.03
403.78 K | 472.31
403.91 K | 472.31
404.04 K | 472.6
404.32 K | 472.31
404.45 K | 472.31
404.58 K | 472.31
404.71 K | 473.16
404.84 K | 473.73
404.98 K | 473.73
405.11 K | 473.16
405.24 K | 472.88
405.38 K | 472.03
405.67 K | 472.88
405.8 K | 473.73
405.93 K | 474.02
406.06 K | 474.02
406.2 K | 473.73
406.33 K | 473.45
406.46 K | 472.88
406.59 K | 472.88
406.72 K | 473.16
406.85 K | 473.45
406.98 K | 473.73
407.27 K | 474.02
407.4 K | 473.73
407.53 K | 473.45
407.66 K | 473.45
407.79 K | 473.16
407.92 K | 473.16
408.05 K | 472.88
408.19 K | 473.45
